According to patent US11814367B2, “Inhibitors of glycogen synthase 1 (GYS1) and methods of use thereof” (Maze Therapeutics, Inc., priority 2021, dated 2023):
pIC50: −log10 of the molar value.

Experiments:
[1] = target: hGYS1 enzyme (recombinant hGYS1/GN1 protein) (Homo sapiens (Human), UniProt P13807); assay: GYS1 coupled enzyme assay (PK/LDH); type: biochemical; settings: hGYS1/GN1 50 nM, UDP-Glucose 0.8 mM, G6P 1 mM; geometric mean of at least 2 runs
[2] = target: hGYS2 enzyme (recombinant hGYS2/GN1 protein) (Homo sapiens (Human), UniProt P54840); assay: GYS2 coupled enzyme assay (PK/LDH); type: biochemical; settings: geometric mean of at least 2 assay runs on separate days, read-out: Avg_IC50
hGYS2 enzyme (recombinant hGYS2/GN1 protein), sequence (P54840 whole entry): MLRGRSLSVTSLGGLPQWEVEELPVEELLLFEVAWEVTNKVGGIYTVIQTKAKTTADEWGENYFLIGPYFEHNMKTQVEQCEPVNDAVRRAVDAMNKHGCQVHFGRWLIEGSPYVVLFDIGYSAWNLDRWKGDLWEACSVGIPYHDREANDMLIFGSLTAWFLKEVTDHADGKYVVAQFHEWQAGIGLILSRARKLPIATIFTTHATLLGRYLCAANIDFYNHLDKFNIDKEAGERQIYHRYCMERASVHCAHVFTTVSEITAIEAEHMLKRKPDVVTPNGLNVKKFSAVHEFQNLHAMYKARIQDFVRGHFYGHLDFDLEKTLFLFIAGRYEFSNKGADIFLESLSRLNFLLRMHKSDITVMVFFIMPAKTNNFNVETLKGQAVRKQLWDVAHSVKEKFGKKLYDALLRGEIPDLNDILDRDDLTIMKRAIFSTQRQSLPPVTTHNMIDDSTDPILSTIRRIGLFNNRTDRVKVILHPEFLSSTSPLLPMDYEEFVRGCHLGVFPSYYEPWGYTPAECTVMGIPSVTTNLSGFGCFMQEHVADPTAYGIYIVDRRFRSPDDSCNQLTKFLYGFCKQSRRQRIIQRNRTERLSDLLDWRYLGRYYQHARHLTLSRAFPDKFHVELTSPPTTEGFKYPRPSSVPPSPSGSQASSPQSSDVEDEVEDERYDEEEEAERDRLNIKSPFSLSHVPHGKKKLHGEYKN
hGYS2 enzyme (recombinant hGYS2/GN1 protein), sequence (P46976 whole entry partner): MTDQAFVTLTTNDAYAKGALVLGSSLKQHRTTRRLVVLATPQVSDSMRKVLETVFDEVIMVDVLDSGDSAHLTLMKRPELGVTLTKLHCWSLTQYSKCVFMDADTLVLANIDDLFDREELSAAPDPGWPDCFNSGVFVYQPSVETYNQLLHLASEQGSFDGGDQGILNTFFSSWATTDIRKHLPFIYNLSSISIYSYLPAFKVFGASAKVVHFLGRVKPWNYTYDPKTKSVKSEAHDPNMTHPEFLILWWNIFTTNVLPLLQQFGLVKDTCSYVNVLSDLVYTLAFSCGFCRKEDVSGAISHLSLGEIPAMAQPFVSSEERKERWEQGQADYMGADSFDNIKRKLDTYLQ
In short: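 Read-out: NADH loss at 340 nm, read each minute for 10 min, slope normalized to controls, duplicate % inhibition fit to Hill (0–100). Enzyme: 200 nM hGYS2/GN1; substrate 2 mM UDP-glucose plus 0.2% glycogen and 2 mM G6P; pH 7.5 Tris, 2.5% DMSO.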

hGYS1 enzyme (recombinant hGYS1/GN1 protein), sequence (P13807 whole entry): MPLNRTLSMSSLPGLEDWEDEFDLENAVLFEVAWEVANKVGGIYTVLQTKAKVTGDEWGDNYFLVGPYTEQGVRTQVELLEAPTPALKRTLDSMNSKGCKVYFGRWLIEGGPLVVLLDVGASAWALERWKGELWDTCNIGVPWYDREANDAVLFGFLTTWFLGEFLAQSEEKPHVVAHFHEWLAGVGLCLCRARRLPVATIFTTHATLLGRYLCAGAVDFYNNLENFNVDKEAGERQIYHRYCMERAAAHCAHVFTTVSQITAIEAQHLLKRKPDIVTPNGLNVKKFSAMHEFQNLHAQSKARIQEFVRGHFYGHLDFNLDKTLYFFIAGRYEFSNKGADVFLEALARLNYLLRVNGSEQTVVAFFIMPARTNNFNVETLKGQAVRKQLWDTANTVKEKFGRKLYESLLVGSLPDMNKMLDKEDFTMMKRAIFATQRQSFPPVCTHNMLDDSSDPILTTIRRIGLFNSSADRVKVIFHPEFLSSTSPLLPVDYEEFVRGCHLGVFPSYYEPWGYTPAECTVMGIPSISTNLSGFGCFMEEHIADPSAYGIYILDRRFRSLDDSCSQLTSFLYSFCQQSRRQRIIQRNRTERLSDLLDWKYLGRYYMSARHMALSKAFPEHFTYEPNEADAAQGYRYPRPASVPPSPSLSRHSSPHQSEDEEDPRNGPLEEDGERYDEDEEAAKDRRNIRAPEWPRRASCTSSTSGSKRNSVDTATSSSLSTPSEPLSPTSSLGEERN
hGYS1 enzyme (recombinant hGYS1/GN1 protein), sequence (P46976 whole entry partner): as the sequence (P46976 whole entry partner) above

Row | pIC50 [1] | pIC50 [2] | Compound
1 | 7.70 | < 4.00 | CC(C)c1ccc([C@@H](NC(=O)[C@@H]2C[C@@H](F)CN2C(=O)CNC(=O)N2CCN(C(=O)OC(C)(C)C)CC2)c2ccccc2)cc1F [Compound 366, tert-butyl 4-({2-[(2S,4R)-4-fluoro-2-{[(S)-[3-fluoro-4-(propan-2-yl)phenyl](phenyl)methyl]carbamoyl}pyrrolidin-1-yl]-2-oxoethyl}carbamoyl) piperazine-1-carboxylate]
2 | 6.73 | < 4.00 | CC(C)c1ccc([C@@H](NC(=O)[C@@H]2C[C@@H](F)CN2C(=O)CCCc2cccnc2)c2ccccc2)cc1 [Compound 94, (2S,4R)-4-fluoro-N-[(S)-phenyl[4-(propan-2-yl)phenyl]methyl]-1-[4-(pyridin-3-yl)butanoyl]pyrrolidine-2-carboxamide]
3 | 7.21 | < 4.00 | CC(C)c1ccc([C@@H](NC(=O)[C@@H]2C[C@@H](F)CN2C(=O)CCc2c[nH]c3ncccc23)c2ccccc2)cc1 [Compound 104, (2S,4R)-4-fluoro-N-[(S)-phenyl[4-(propan-2-yl)phenyl]methyl]-1-(3-{1H-pyrrolo[2,3-b]pyridin-3-yl}propanoyl)pyrrolidine-2-carboxamide]
4 | 7.48 | < 4.00 | Cc1ccc(CCC(=O)N2C[C@H](F)C[C@H]2C(=O)N[C@@H](c2ccccc2)c2ccc(C(C)C)cc2)c(C)n1 [Compound 110, (2S,4R)-1-[3-(2,6-dimethylpyridin-3-yl)propanoyl]-4-fluoro-N-[(S)-phenyl[4-(propan-2-yl)phenyl]methyl]pyrrolidine-2-carboxamide]
5 | 6.94 | < 4.00 | O=C(N[C@@H](c1ccccc1)c1ccc(C2CC2)c(Cl)c1)[C@@H]1C[C@@H](F)CN1C(=O)Cc1cnn[nH]1 [Compound 664, (2S,4R)-N-[(S)-(3-chloro-4-cyclopropylphenyl) (phenyl)methyl]-4-fluoro-1-[2-(1H-1,2,3-triazol-5-yl)acetyl]pyrrolidine-2-carboxamide]
6 | 7.43 | < 4.00 | Cc1nc(CC(=O)N2C[C@H](F)C[C@H]2C(=O)N[C@@H](c2ccccc2)c2ccc(C(C)C)cc2)cs1 [Compound 52, (2S,4R)-4-fluoro-1-[2-(2-methyl-1,3-thiazol-4-yl)acetyl]-N-[(S)-phenyl[4-(propan-2-yl)phenyl]methyl]pyrrolidine-2-carboxamide]
7 | 7.33 | < 4.00 | CC(=O)N[C@@H](CC(N)=O)C(=O)N1C[C@H](F)C[C@H]1C(=O)N[C@@H](c1ccccc1)c1ccc(C(C)C)c(F)c1 [Compound 765, (2S,4R)-1-[(2S)-3-carbamoyl-2-acetamidopropanoyl]-4-fluoro-N-[(S)-[3-fluoro-4-(propan-2-yl)phenyl](phenyl)methyl] pyrrolidine-2-carboxamide]
8 | 7.57 | < 4.00 | CC(C)c1ccc([C@@H](NC(=O)[C@@H]2C[C@@H](F)CN2C(=O)Cc2ccnn2C)c2ccccc2)cc1F [Compound 337, (2S,4R)-4-fluoro-N-[(S)-[3-fluoro-4-(propan-2-yl)phenyl](phenyl)methyl]-1-[2-(1-methyl-1H-pyrazol-5-yl)acetyl]pyrrolidine-2-carboxamide]
9 | 6.96 | < 4.00 | Cc1nnc(CC(=O)N2C[C@H](F)C[C@H]2C(=O)N[C@@H](c2ccccc2)c2ccc(C3CC3)c(F)c2)[nH]1 [Compound 434, (2S,4R)-N-[(S)-(4-cyclopropyl-3-fluorophenyl)(phenyl)methyl]-4-fluoro-1-[2-(5-methyl-4H-1,2,4-triazol-3-yl)acetyl]pyrrolidine-2-carboxamide]
10 | 7.77 | < 4.00 | CC(C)c1ccc([C@@H](NC(=O)[C@@H]2C[C@@H](F)CN2C(=O)Cc2cnn(C)c2)c2ccccc2)cc1 [Compound 50, (2S,4R)-4-fluoro-1-[2-(1-methyl-1H-pyrazol-4-yl)acetyl]-N-[(S)-phenyl[4-(propan-2-yl)phenyl]methyl]pyrrolidine-2-carboxamide]
11 | 7.12 | < 4.00 | CC(C)c1ccc([C@@H](NC(=O)[C@@H]2[C@H]3C[C@H]3CN2C(=O)Cc2cnn[nH]2)c2ccccc2)cc1F [Compound 325, (1S,2S,5R)-N-[(S)-[3-fluoro-4-(propan-2-yl)phenyl](phenyl)methyl]-3-[2-(1H-1,2,3-triazol-5-yl)acetyl]-3-azabicyclo[3.1.0]hexane-2-carboxamide]
12 | 6.97 | < 4.00 | CC(C)c1ccc([C@@H](NC(=O)[C@@H]2C[C@@H](F)CN2C(=O)C(C)n2cnnn2)c2ccccc2)cc1F (single isomer, unassigned) [Compound 767, (2S,4R)-4-fluoro-N-[(S)-[3-fluoro-4-(propan-2-yl)phenyl](phenyl)methyl]-1-[(2S) or (2R)-2-(1H-1,2,3,4-tetrazol-1-yl)propanoyl]pyrrolidine-2-carboxamide]
13 | 6.90 | < 4.00 | CC(=O)N1CCC(C(=O)N2C[C@H](F)C[C@H]2C(=O)N[C@@H](c2ccccc2)c2ccc(C(C)C)cc2)C1 (stereo partly drawn) [Compound 147, (2S,4R)-1-(1-acetylpyrrolidine-3-carbonyl)-4-fluoro-N-[(S)-phenyl[4-(propan-2-yl)phenyl]methyl]pyrrolidine-2-carboxamide]
14 | 7.00 | < 4.00 | CC(C)c1ccc([C@@H](NC(=O)[C@@H]2C[C@@H](F)CN2C(=O)Cc2cnn[nH]2)c2cccc(F)c2)cc1F [Compound 645, (2S,4R)-4-fluoro-N-[(S)-[3-fluoro-4-(propan-2-yl)phenyl](3-fluoropheny)methyl]-1-[2-(1H-1,2,3-triazol-5-yl)acetyl]pyrrolidine-2-carboxamide]
15 | 6.43 | < 4.00 | O=C(N[C@@H](c1ccccc1)c1ccc(C2CC2)c(F)c1)[C@@H]1C[C@@H](F)CN1C(=O)Cc1nnc(C(F)(F)F)o1 [Compound 428, (2S,4R)-N-[(S)-(4-cyclopropyl-3-fluorophenyl)(phenyl)methyl]-4-fluoro-1-{2-[5-(trifluoromethyl)-1,3,4-oxadiazol-2-yl]acetyl}pyrrolidine-2-carboxamide]
16 | 6.98 | < 4.00 | CC(C)c1ccc([C@@H](NC(=O)[C@@H]2C[C@@H](F)CN2C(=O)Cc2ccon2)c2ccccc2)cc1 [Compound 231, (2S,4R)-4-fluoro-1-[2-(1,2-oxazol-3-yl)acetyl]-N-[(S)-phenyl[4-(propan-2-yl)phenyl]methyl]pyrrolidine-2-carboxamide]
17 | 6.97 | < 4.00 | CC(C)c1ccc([C@@H](NC(=O)[C@@H]2CCCN2C(=O)CNC(=O)OC(C)(C)C)c2ccccc2)cc1 [Compound 210, tert-butyl N-{2-oxo-2-[(2S)-2-{[(S)-phenyl[4-(propan-2-yl)phenyl]methyl]carbamoyl}pyrrolidin-1-yl]ethyl}carbamate]
18 | 6.79 | < 4.00 | Cc1noc(C)c1CCC(=O)N1C[C@H](F)C[C@H]1C(=O)N[C@@H](c1ccccc1)c1ccc(C(C)C)cc1 [Compound 103, (2S,4R)-1-[3-(3,5-dimethyl-1,2-oxazol-4-yl)propanoyl]-4-fluoro-N-[(S)-phenyl[4-(propan-2-yl)phenyl]methyl]pyrrolidine-2-carboxamide]
19 | 7.02 | < 4.00 | CC(=O)N(CC(N)=O)CC(=O)N1C[C@H](F)C[C@H]1C(=O)N[C@@H](c1ccccc1)c1ccc(C(C)C)cc1 [Compound 189, (2S,4R)-1-{2-[N-(carbamoylmethyl)acetamido]acetyl}-4-fluoro-N-[(S)-phenyl[4-(propan-2-yl)phenyl]methyl]pyrrolidine-2-carboxamide]
20 | 7.32 | < 4.00 | Cc1noc(CC(=O)N2C[C@H](F)C[C@H]2C(=O)N[C@@H](c2ccccc2)c2ccc(C(C)C)cc2)n1 [Compound 31, (2S,4R)-4-fluoro-1-[2-(3-methyl-1,2,4-oxadiazol-5-yl)acetyl]-N-[(S)-phenyl[4-(propan-2-yl)phenyl]methyl]pyrrolidine-2-carboxamide]
21 | 6.87 | < 4.00 | CC(C)c1ccc([C@@H](NC(=O)[C@@H]2C[C@@H](F)CN2C(=O)CCc2cn[nH]c2)c2ccccc2)cc1 [Compound 46, (2S,4R)-4-fluoro-N-[(S)-phenyl[4-(propan-2-yl)phenyl]methyl]-1-[3-(1H-pyrazol-4-yl)propanoyl]pyrrolidine-2-carboxamide]
22 | 7.30 | < 4.00 | CC(C)c1ccc([C@@H](NC(=O)[C@@H]2C[C@@H](F)CN2C(=O)C(C)n2cnnn2)c2ccccc2)cc1 (stereo partly drawn) [Compound 24, (2S,4R)-4-fluoro-N-[(S)-phenyl[4-(propan-2-yl)phenyl]methyl]-1-[2-(1H-1,2,3,4-tetrazol-1-yl)propanoyl]pyrrolidine-2-carboxamide]
23 | 7.19 | < 4.00 | Cc1cc(CCC(=O)N2C[C@H](F)C[C@H]2C(=O)N[C@@H](c2ccccc2)c2ccc(C(C)C)cc2)ccn1 [Compound 99, (2S,4R)-4-fluoro-1-[3-(2-methylpyridin-4-yl)propanoyl]-N-[(S)-phenyl[4-(propan-2-yl)phenyl]methyl]pyrrolidine-2-carboxamide]
24 | 7.08 | < 4.00 | Cc1nnnn1CC(=O)N1C[C@H](F)C[C@H]1C(=O)N[C@@H](c1ccccc1)c1ccc(C(C)C)cc1 [Compound 226, (2RS,4R)-4-fluoro-1-[2-(5-methyl-1H-1,2,3-tetrazol-1-yl)acetyl]-N-[(S)-phenyl[4-(propan-2-yl)phenyl]methyl]pyrrolidine-2-carboxamide]
25 | 7.57 | < 4.00 | CC(C)c1ccc([C@@H](NC(=O)[C@@H]2C[C@@H](F)CN2C(=O)Cc2nnc[nH]2)c2ccccc2)cc1 [Compound 194, (2S,4R)-4-fluoro-N-[(S)-phenyl[4-(propan-2-yl)phenyl]methyl]-1-[2-(4H-1,2,4-triazol-3-yl)acetyl]pyrrolidine-2-carboxamide]
